In ChEMBL document CHEMBL3217432, “Oxazole phosphonic acids as fructose 1,6-bisphosphatase inhibitors with potent glucose-lowering activity” (Medchemcomm, 2011):

Key:
[1] = target: T1, Fructose-1,6-bisphosphatase 1 (Homo sapiens, UniProt P09467); experiment: Inhibition of human liver FBPase
T1 sequence (P09467 whole entry): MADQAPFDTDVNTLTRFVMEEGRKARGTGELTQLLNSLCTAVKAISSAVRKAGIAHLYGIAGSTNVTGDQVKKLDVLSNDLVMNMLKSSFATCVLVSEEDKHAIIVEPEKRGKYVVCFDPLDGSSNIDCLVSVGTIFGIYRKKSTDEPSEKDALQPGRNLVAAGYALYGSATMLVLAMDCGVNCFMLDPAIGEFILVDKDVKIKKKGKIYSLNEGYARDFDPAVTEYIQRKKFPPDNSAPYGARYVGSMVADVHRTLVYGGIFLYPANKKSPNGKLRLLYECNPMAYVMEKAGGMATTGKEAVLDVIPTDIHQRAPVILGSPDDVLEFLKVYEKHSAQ

[2] = system: Rattus norvegicus; experiment: Antidiabetic activity in rat assessed as reduction of blood glucose level at 10 mg/kg, iv relative to control; format: functional; parameters: scale not given: the % may be the effect or the level left
[3] = target: T2, Fructose-1,6-bisphosphatase 1 (Rattus norvegicus, UniProt P19112); experiment: Inhibition of rat liver FBPase
T2 sequence (P19112 whole entry): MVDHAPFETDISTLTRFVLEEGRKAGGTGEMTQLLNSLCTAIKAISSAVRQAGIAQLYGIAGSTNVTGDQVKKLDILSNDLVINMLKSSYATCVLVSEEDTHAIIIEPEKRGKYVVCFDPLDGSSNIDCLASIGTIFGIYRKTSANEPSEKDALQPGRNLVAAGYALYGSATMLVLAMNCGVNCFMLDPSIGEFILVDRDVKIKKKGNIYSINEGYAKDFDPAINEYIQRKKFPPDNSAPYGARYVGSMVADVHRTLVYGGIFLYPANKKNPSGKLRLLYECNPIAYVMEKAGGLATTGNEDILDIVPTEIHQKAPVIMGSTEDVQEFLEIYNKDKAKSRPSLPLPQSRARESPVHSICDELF

Row | IC50 [1] | IC50 [3] | SMILES | Activity [2]
1 | 4 µM |  | Nc1nc(-c2ccc(P(=O)(O)O)o2)c(Sc2ccccc2)o1 | 
2 | 0.03 µM | 2.3 µM | CCSC(=O)c1oc(N)nc1-c1ccc(P(=O)(O)O)o1 | 51%
3 | 1 µM |  | CNC(=O)c1oc(N)nc1-c1ccc(P(=O)(O)O)o1 | 0%
4 | 0.855 µM |  | CC(C)(C)C(=O)c1oc(N)nc1-c1ccc(P(=O)(O)O)o1 | 
5 | 0.21 µM | 2.7 µM | CCCCCc1oc(N)nc1-c1ccc(P(=O)(O)O)o1 | 7%
6 | 0.32 µM | 5.5 µM | Nc1nc(-c2ccc(P(=O)(O)O)o2)c(CC2CCCCC2)o1 | 
7 | 0.16 µM | 2.5 µM | Nc1nc(-c2ccc(P(=O)(O)O)o2)c(-c2ccccc2)o1 | 8%
8 | 0.9 µM | 10 µM | Nc1nc(-c2ccc(P(=O)(O)O)o2)c(Cc2ccccc2)o1 | 
9 | 0.26 µM | 3.75 µM | Nc1nc(-c2ccc(P(=O)(O)O)o2)c(Cc2cccs2)o1 | 
10 |  |  | CC(C)Cc1oc(N)nc1-c1ccc(P(=O)(O)O)o1 | 51%
11 | 10 µM |  | Nc1nc(-c2ccc(P(=O)(O)O)o2)co1 | 
12 | 0.14 µM | 3 µM | C=CCc1oc(N)nc1-c1ccc(P(=O)(O)O)o1 | 19%
13 | 0.17 µM | 2.3 µM | CCCCc1oc(N)nc1-c1ccc(P(=O)(O)O)o1 | 10%
14 | 0.11 µM | 0.9 µM | CC(C)Sc1oc(N)nc1-c1ccc(P(=O)(O)O)o1 | 61%
15 | 0.12 µM | 1.7 µM | CC(C)(C)Sc1oc(N)nc1-c1ccc(P(=O)(O)O)o1 | 
16 |  |  | CCCSc1oc(N)nc1-c1ccc(P(=O)(O)O)o1 | 61%
17 | 0.067 µM | 3.9 µM | COC(=O)c1oc(N)nc1-c1ccc(P(=O)(O)O)o1 | 0%
18 |  |  | CCOC(=O)c1oc(N)nc1-c1ccc(P(=O)(O)O)o1 | 18%

Row | IC50 [1] | IC50 [3] | SMILES | Activity [2]
19 | 0.04 µM |  | CC(C)OC(=O)c1oc(N)nc1-c1ccc(P(=O)(O)O)o1 | 7%
20 | 0.085 µM | 2.25 µM | Nc1nc(-c2ccc(P(=O)(O)O)o2)c(C(=O)OCc2ccccc2)o1 | 0%
21 | 10 µM |  | CC(C)Cc1oc(O)nc1-c1ccc(P(=O)(O)O)o1 | 
22 | 1.9 µM |  | CC(C)Cc1ocnc1-c1ccc(P(=O)(O)O)o1 | 
23 | 2.1 µM |  | CC(C)Cc1oc(N(C)C)nc1-c1ccc(P(=O)(O)O)o1 | 
24 | 2.2 µM |  | CC(C)Cc1oc(C(C)C)nc1-c1ccc(P(=O)(O)O)o1 | 
25 | 4.3 µM |  | CNc1nc(-c2ccc(P(=O)(O)O)o2)c(CC(C)C)o1 | 
26 | 0.95 µM |  | CCc1nc(-c2ccc(P(=O)(O)O)o2)c(CC(C)C)o1 | 
27 | 10 µM |  | CCNc1nc(-c2ccc(P(=O)(O)O)o2)c(CC(C)C)o1 | 
28 | 6.7 µM |  | C=Cc1nc(-c2ccc(P(=O)(O)O)o2)c(CC(C)C)o1 | 
29 | 0.42 µM |  | Cc1oc(N)nc1C(=O)OCP(=O)(O)O | 
30 | 0.38 µM |  | CCc1oc(N)nc1C(=O)OCP(=O)(O)O | 
31 | 0.28 µM |  | CCCc1oc(N)nc1C(=O)OCP(=O)(O)O | 
32 | 0.58 µM |  | CC(C)c1oc(N)nc1C(=O)OCP(=O)(O)O | 
33 | 0.25 µM | 1.7 µM | CCCCc1oc(N)nc1C(=O)OCP(=O)(O)O | 22%
34 | 0.35 µM |  | CCCCCc1oc(N)nc1C(=O)OCP(=O)(O)O | 
35 | 10 µM |  | Cc1nc(C(=O)OCP(=O)(O)O)c(C(F)(F)F)o1 | 
36 | 10 µM |  | O=C(OCP(=O)(O)O)c1ncoc1-c1ccccc1 | 

Row | SMILES | IC50 [1] | IC50 [3] | Activity [2]
37 | Nc1nc(C(=O)OCP(=O)(O)O)co1 | 7 µM |  | 
